Entries after “also recorded” stand apart in the source; their conditions may differ. Structures can show the parent of a compound that is named as a salt.
What was measured:
human mAChR M5 = target: T1, human mAChR M5 (Homo sapiens, UniProt P08912); experiment: Competitive [3H]NMS radioligand binding assay on CHO cell membranes, mAChR M5; settings: CHO cell membranes with human receptor, 1.5 h at 20 °C, this work
T1 construct: host or cells: CHO-K1 (stably transfected), membrane preparation
T1 sequence (P08912 1-532): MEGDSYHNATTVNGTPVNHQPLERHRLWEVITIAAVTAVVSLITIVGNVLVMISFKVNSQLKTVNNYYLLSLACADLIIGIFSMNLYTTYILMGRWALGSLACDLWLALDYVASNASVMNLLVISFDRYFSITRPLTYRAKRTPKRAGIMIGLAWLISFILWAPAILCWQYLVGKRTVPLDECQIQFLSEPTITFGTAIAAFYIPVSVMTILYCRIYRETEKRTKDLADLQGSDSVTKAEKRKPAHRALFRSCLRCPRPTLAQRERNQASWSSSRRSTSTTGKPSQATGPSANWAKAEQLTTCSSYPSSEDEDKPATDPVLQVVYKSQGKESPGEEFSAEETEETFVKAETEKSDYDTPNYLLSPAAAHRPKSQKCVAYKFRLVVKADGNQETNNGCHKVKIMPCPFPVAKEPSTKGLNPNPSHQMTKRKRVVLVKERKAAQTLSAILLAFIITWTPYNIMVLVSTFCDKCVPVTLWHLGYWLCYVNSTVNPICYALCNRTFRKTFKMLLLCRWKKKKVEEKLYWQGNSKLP
Procedure: (§1) Filter bound decay rate is normalized to 1 for binding in absence of competitor and to 0 for nonspecific binding.
(§2) Membrane preparations of mAChR M1, M2, M3, M4 or M5 receptors were produced from the respective cell line as follows. The medium of a confluent T175 cell culture flask was poured off and the cell layer was washed with ice-cold PBS. Cells were scraped off and suspended in 2 mL 10 mM Tris/HCl, 1 mM EDTA buffer (pH 7.4) and 200 µL protease inhibitor cocktail. A cell homogenate obtained from passing the cell suspension through a G29 needle was centrifuged (10 min, 1,000 g, 4 °C).
(§3) A competitive radioligand binding assay using [^3H]NMS and variable concentrations of test compounds was performed in assay buffer (50 mM Tris/HCl, 10 mM MgCl2, 1 mM EDTA). Polypropylene tubes were filled with 5 µL aqueous solution of the test compounds, 50 µL radioligand solution in assay buffer and 445 µL membrane suspension in assay buffer (diluted approx. 1:100), shaken and incubated for 1.5 h at 20 °C. Nonspecific binding of the radioligand was determined by using 5 µL of a 1 µM scopolamine hydrobromide solution. The concentration of the radioligand solution was chosen as 2 nM, 3 nM, 8 nM, 2 nM and 10 nM for M1-M5, respectively. […] Specific binding was calculated as total binding minus nonspecific binding. To delineate the IC50 value, specific binding was plotted against the logarithm of the test compound concentration and fitted by a variable slope logistic regression.
(§4) Table S3: HPLC parameters of the methods for the analysis of pirenzepine, telenzepine and their rearrangement products. LOD = limit of
(§5) detection, LOL = limit of linearityi
(§6) Stably transfected CHO-K1 cells containing human muscarinic receptors M1-M5 were purchased from Missouri
(§7) University of Science and Technology cDNA Resource Center (Cell Catalog#: CEM1000000, CEM2000000,
(§8) Limited) supplemented with 10% FBS (Gibco, Life Tec hnologies Limited) and 250 µg/mL Geneticin® (G418, Thermo
(§9) Fisher) at 37 °C and 5% CO2 in a cell incubator. Cells were passaged using Gibco Trypsin -EDTA (0.05%). A solution of […]

human mAChR M3 = target: T2, human mAChR M3 (Homo sapiens, UniProt P20309); experiment: Competitive [3H]NMS radioligand binding assay on CHO cell membranes, mAChR M3; settings: CHO cell membranes with human receptor, 1.5 h at 20 °C, this work
T2 construct: host or cells: CHO-K1 (stably transfected), membrane preparation
T2 sequence (P20309 whole entry): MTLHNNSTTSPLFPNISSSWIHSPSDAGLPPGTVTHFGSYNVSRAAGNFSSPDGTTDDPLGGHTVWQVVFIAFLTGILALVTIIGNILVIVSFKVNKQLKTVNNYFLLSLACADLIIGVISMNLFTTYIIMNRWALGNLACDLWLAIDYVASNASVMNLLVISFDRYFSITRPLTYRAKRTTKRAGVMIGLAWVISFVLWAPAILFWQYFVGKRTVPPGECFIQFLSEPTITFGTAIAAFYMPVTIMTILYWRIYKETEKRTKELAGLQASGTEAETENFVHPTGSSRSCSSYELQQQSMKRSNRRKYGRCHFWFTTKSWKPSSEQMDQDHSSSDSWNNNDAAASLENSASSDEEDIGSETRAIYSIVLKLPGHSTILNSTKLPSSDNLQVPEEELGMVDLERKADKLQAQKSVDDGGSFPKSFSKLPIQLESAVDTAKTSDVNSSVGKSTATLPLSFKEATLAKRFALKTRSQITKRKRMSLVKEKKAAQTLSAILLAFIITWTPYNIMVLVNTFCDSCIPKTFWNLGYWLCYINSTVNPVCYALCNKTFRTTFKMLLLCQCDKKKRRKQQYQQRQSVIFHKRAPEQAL
Procedure: as §1, §2, §3, §4, §5, §6, §7, §8, §9

human mAChR M2 = target: T3, human mAChR M2 (Homo sapiens, UniProt P08172); experiment: Competitive [3H]NMS radioligand binding assay on CHO cell membranes, mAChR M2; settings: CHO cell membranes with human receptor, 1.5 h at 20 °C, this work
T3 construct: host or cells: CHO-K1 (stably transfected), membrane preparation
T3 sequence (P08172 1-466): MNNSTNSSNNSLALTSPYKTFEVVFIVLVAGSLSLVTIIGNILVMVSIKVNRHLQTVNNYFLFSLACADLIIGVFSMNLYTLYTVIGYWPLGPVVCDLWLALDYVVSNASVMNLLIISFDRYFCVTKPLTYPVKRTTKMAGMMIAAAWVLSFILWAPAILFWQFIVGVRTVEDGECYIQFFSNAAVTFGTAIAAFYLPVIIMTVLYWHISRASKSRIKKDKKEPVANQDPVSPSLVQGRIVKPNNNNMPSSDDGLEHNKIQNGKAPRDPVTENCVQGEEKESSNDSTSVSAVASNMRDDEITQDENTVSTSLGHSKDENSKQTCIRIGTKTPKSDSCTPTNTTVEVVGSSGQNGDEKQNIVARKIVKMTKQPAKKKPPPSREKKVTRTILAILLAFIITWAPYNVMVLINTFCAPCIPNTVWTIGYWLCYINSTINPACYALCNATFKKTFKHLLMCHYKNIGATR
Procedure: as §1, §2, §3, §4, §5, §6, §7, §8, §9

human mAChR M4 = target: T4, human mAChR M4 (Homo sapiens, UniProt P08173); experiment: Competitive [3H]NMS radioligand binding assay on CHO cell membranes, mAChR M4; settings: CHO cell membranes with human receptor, 1.5 h at 20 °C, this work
T4 construct: host or cells: CHO-K1 (stably transfected), membrane preparation
T4 sequence (P08173 1-479): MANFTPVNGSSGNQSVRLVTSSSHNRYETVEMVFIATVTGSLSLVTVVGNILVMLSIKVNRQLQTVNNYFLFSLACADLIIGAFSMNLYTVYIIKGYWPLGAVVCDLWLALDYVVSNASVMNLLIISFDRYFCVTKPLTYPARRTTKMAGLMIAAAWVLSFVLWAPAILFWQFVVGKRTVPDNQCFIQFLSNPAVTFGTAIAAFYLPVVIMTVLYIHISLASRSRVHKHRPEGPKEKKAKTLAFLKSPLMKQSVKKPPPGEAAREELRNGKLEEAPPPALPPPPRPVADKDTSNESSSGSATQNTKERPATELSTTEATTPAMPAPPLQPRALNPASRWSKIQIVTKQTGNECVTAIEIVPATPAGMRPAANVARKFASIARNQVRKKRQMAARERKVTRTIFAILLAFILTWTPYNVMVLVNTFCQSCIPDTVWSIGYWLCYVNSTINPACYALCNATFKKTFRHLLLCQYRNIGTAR
Procedure: as §1, §2, §3, §4, §5, §6, §7, §8, §9

human mAChR M1 = target: T5, human mAChR M1 (Homo sapiens, UniProt P11229); experiment: Competitive [3H]NMS radioligand binding assay on CHO cell membranes, mAChR M1; settings: for Ki: [3H]NMS 0.2 nM, CHO cell membranes with human receptor, 1.5 h at 20 °C, this work
T5 construct: host or cells: CHO-K1 (stably transfected), membrane preparation
T5 sequence (P11229 1-460): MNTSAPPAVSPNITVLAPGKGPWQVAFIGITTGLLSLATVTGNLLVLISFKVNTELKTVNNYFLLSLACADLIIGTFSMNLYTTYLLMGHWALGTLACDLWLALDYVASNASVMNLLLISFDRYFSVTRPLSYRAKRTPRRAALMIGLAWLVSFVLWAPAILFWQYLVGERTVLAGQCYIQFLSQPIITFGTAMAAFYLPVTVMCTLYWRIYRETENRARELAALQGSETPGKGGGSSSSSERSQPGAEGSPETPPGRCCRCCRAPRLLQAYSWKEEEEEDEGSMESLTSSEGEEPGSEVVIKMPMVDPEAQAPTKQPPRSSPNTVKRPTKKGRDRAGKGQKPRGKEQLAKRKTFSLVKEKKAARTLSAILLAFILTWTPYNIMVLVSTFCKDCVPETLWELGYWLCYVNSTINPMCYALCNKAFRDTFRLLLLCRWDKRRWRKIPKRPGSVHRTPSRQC
Procedure: as §1, §2
as §3, with “solution.” for “solution. The concentration of the radioligand solution was chosen as 2 nM, 3 nM, 8 nM, 2 nM and 10 nM for M1-M5, respectively.”
as §4, §5, §6, §7, §8
Fisher) at 37 °C and 5% CO2 in a cell incubator. Cells were passaged using Gibco Trypsin -EDTA (0.05%). A solution of
P2714-1BTL, Sigma-Aldrich in 10 mL water was used as protease inhibitor cocktail.

CHO-K1 cells = experiment: MTT cytotoxicity assay toward CHO cell line; settings: 72 h exposure, whole concentration range, up to 1 mM
[1] = Thermal stability of pure crystalline solid; assay type: physicochemical; settings: 100 °C for 12 h
[2] = Rearrangement in simulated gastric fluid or equimolar aqueous HCl (HPLC); assay type: physicochemical; settings: 0.08 M aq. HCl, 1 g/L NaCl and 1.6 g/L pepsin, 6 h at 37 °C
[3] = Kinetics of acid-catalysed rearrangement of 2 to 4 in aqueous HCl (HPLC); settings: for half-life at 50 µg/mL: 6 M aqueous HCl, Half life of rearrangement, initial concentration 50 µg/mL, n = 3
mAChR M3 = target: mAChR M3; parameters: method as in PMID 2066986; settings: 90 min at 37 °C, transfected A9L cells; cited from earlier work
mAChR M4 = settings: read-out: Ki mAChR M4; 90 min at 37 °C, NG108-15 cells; cited from earlier work
mAChR M2 = settings: read-out: Ki mAChR M2; 90 min at 37 °C, membranes from rat heart tissue; cited from earlier work
mAChR M1 = settings: read-out: Ki mAChR M1; 90 min at 37 °C, transfected A9L cells; cited from earlier work

Row | Ki (human mAChR M5) | Ki (human mAChR M3) | Ki (human mAChR M2) | Ki (human mAChR M4) | Ki (human mAChR M1) | Formation of 4 from 2 ([3]; 0.1 M aqueous HCl at 37 °C, 55 °C or 75 °C overnight) | Activation energy of the rearrangement ([3]; 6 M HCl, from slope of Arrhenius plot) | half-life at 50 µg/mL ([3]; 6 M HCl, 37 °C) | half-life at 50 µg/mL ([3]; 6 M HCl, 55 °C) | half-life at 50 µg/mL ([3]; 6 M HCl, 75 °C) | Conversion of 2 to 4 ([3]; strong excess of aqueous HCl (6 M), pseudo first order kinetic) | Loss of affinity towards M1 on rearrangement (affinity constant of rearranged product vs parent) (human mAChR M1; rearranged product (4 or 5) versus parent drug) | SMILES | Effect on cell viability (MTT assay) (CHO-K1 cells) | Formation of 4 on heating the solid [1] | Isomerization of 2 to 4 in simulated gastric fluid [2] | Ki (mAChR M3) | Ki (mAChR M4) | Ki (mAChR M2) | Ki (mAChR M1)
1 | 360 ± 20 nM | 7000 ± 2000 nM | 47000 ± 19000 nM | 1200 ± 200 nM | 600 ± 20 nM | – | – | – | – | – | – | – | CN1CCN(Cc2nc3cccnc3n2-c2ccccc2C(=O)O)CC1.Cl.Cl [Compound 4, 2-(2-((4-methylpiperazin-1-yl)methyl)-3H-imidazo[4,5-b]pyridin-3-yl)benzoic acid dihydrochloride] | No cytotoxic effect; also recorded: without measurable effect on cell viability | – | – | – | – | – | –
2 | 4100 ± 200 nM | 8000 ± 3000 nM | 10600 ± 1500 nM | 2000 ± 400 nM | 1400 ± 300 nM | – | – | – | – | – | – | – | Cc1scc(C(=O)O)c1-n1c(CN2CCN(C)CC2)nc2ccccc21 [Compound 5, 5-methyl-4-(2-((4-methylpiperazin-1-yl)methyl)-1H-benzo[d]imidazol-1-yl)thiophene-3-carboxylic acid] | No cytotoxic effect; also recorded: without measurable effect on cell viability | – | – | – | – | – | –
3 | – | – | – | – | – | < 1% | 19.9 ± 0.454 kcal/mol | 13.8 ± 0.5 h | 1.95 ± 0.267 h | 0.417 ± 0.0333 h | quantitative conversion | – | CN1CCN(CC(=O)N2c3ccccc3C(=O)Nc3cccnc32)CC1 [Compound 2, Pirenzepine dihydrochloride] | No cytotoxic effect | did not result in formation of 4 in detectable amounts | neither simulated gastric fluid (0.08 M aq. HCl, 1 g/L NaCl and 1.6 g/L pepsin) nor equimolar aqueous HCl solution caused detectable isomerization | – | – | – | –
4 | 16 ± 9 nM | 12 ± 2 nM | 26 ± 5 nM | 29 ± 16 nM | 1.8 ± 0.8 nM | – | – | – | – | – | – | 780 fold | Cc1scc2c1N(C(=O)CN1CCN(C)CC1)c1ccccc1NC2=O [telenzepine 2HCl, Telenzepine dihydrochloride] | No cytotoxic effect | – | – | 6.9 nM | 17.4 nM | 50.3 nM | 1.8 nM
